Reference: patent US20040213771A1, “Targets and screens for agents useful in controlling parasitic nematodes” (priority 2001, published 2004)
Where two headings read alike, the source gives them in different places.

Columns and labels:
[1] = tested on: C. elegans CYP genes (CYP35A1-A5, CYP35B1-B3, CYP35C, CYP31A1, CYP31A3); experiment: Induction of cytochrome P450 gene expression, semi-quantitative RT-PCR; assay type: in vivo, Caenorhabditis elegans; settings: 5 ug/ml beta-naphthaflavone plus 1% DMSO or 1 mM chloroquine; ~72 hours at 20° C.; observed in both N2 and nhr-8(ok186) animals; FIG. 15
Protocol: The plates were incubated at 20° C. for ˜72 hours to allow for nematode growth and exposure to compound. Nematodes were then harvested, washed 3× in M9 to remove residual bacteria, and flash frozen in liquid nitrogen. Total RNA was isolated from the frozen nematodes as described (Sluder, A., S. W. Mathews, D. Hough, V. P. Yin, and C. V. Maina, The nuclear receptor superfamily has undergone extensive proliferation and diversification in nematodes. Genome Research, 1999. 9: 103-120).
The levels of cytochrome P450 mRNA in each RNA prep were assayed by semi-quantitative RT-PCR, using primers for specific cytochrome P450 gene sequences presented in Tables 5 and 6, in which nucleotides at degenerate positions are indicated using (N/N). […] Prior to performing PCR amplification to assess gene expression levels, the number of amplification cycles to be employed with each primer pair was selected to ensure that the amplification reactions remained within the linear reaction range [cycle number was selected as described in Johnstone, I. L. and J. D. Barry, Temporal reiteration of a precise gene expression pattern during nematode development Embo J. 1996, 15: 3633-3639, except that reaction products were analyzed by ethidium bromide-staining rather than Southern blotting]. […]

[2] = tested on: C. elegans wild-type (N2) and nhr-8(ok186) mutant animals; settings: for Sensitivity of nhr-8(ok186) mutant animals compared with wild-type (N2), L1 assay: 1% DMSO, 20° C., ~72 hours, FIGS. 13 and 14
Protocol: Assays for nematode sensitivity to toxic compounds known to induce mammalian cytochrome P450 expression (β-naphthaflavone, primaquine, and atrazine, available from Sigma) were performed in polystyrene 24-well tissue culture plates (Costar, Corning, N.Y.). Each culture well was filled with 0.8 ml of NGM agar (Lewis, J. A. and J. T. Fleming, Basic culture methods, in Caenorhabditis elegans: Modern Biological Analysis of an Organism, H. F. Epstein and D. C. Shakes, Editors. 1995, Academic Press: San Diego, Calif. pp. 3-29) containing compound additions as indicated. Compound solutions and dilutions were prepared in DMSO, and the appropriate amounts of compound were added to aliquots of molten NGM agar (equilibrated in a 55° C. water bath) prior to pouring the wells. For each compound, assays were performed using a range of final compound concentrations in the agar (0, 2, 5, 10, 20 and 30 ug/ml β-naphthoflavone; 0, 25, 50, 100, 250, and 77 ug/ml atrazine; 0, 20, 40, 60, 80 and 100 ug/ml primaquine). The final concentration of DMSO in the agar was 1% in every case, and controls of no addition and of 1% DMSO were also included in every assay series. Once the agar was solidified, each well was seeded with a lawn of E. coli OP50-1 prior to the addition of nematodes. All assays were performed in duplicate. Two different assay strategies were used to assess compound effects on nematode growth and viability: L1 assay: Synchrono5us nematode cultures of the wild-type strain N2 and of the mutant nhr-8(ok186) were obtained by isolating L1 larvae as described Lewis, J. A. and J. T. Fleming, Basic culture methods, in Caenorhabditis elegans: Modern Biological Analysis of an Organism, H. F. Epstein and D. C. […] The actual number of worms in each well was determined by direct count. […] After incubation at 20° C. for ˜72 hours, larval growth was assessed in each well by counting the number of gravid adults, L4 larvae/non-gravid adults, and larvae younger than the L4 stage. […] This difference was recorded as a “missing” class.

[3] = tested on: C. elegans wild type (N2), nhr-8(ok186), pgp-3(pk18) and nhr-8(ok186); pgp-3(pk18) worms
Protocol: Assays for nematode killing by selected toxins were performed in polystyrene 12-well tissue culture plates from Costar (Corning, N.Y.). Concentrated stock solutions of toxins were purified by filtration through 0.2 μm nitrocellulose filters (Corning, Corning, N.Y.). Because the toxin concentrations were not measured following filtration, the molarities of the solutions are estimates. Concentrated toxin stock solutions were serially diluted with S media (0.1 M NaCl, 0.05M potassium phosphate, 5 μg/ml cholesterol, 0.05 mM disodium EDTA, 0.025 mM FeSO4.7H2O, 0.001 mM MnCl2.4H2O, 0.001 mM ZnSO4.7H2O, 0.0001 mM CuSO4.5H2O, […]) to produce appropriate working solutions. To provide a bacterial food source, a saturated culture of E. coli OP50 [43] grown in LB was pelleted and resuspended in each toxin solution. For each 50 ml of toxin solution, 25 ml of the bacterial culture was pelleted for resuspension. Serial dilutions were made in bulk and aliquoted into individual wells (1 ml per well).
To assess killing by the toxins, single hermaphrodites were allowed to lay eggs in individual wells for a 12 hour interval, then transferred to fresh wells. Hatched larvae in each well were counted 12 hours after removal of the hermaphrodite and observed over the course of seven days for development and survival to adulthood [wild type animals complete postembryonic development within 3 days, 29].

[4] = tested on: C. elegans nhr-8(RNAi) worms; experiment: Colchicine toxicity assay after RNA-mediated interference of nhr-8; assay type: in vivo, Caenorhabditis elegans; settings: nhr-8(RNAi) vs nhr-8(ok186); percentage surviving to the adult stage; FIG. 7
Protocol: Single RNA strands were produced with the Ambion MEGAscript in vitro transcription kit, using as template a PCR amplicon (produced from cm14e12 using primers EL-15 and T7) that lacked sequences encoding the NHR-8 DNA binding domain. To produce dsRNA, equal amounts of sense and antisense transcription reactions and 3× injection buffer (20 mM KPO4 pH 7.5, 3 mM KCitrate pH 7.5, 2% PEG6000) were combined and incubated on a thermal cycler for strand annealing (95° C., 20 sec.; reduced by 2° C. per 10 sec. cycle for 11 cycles). Both gonad arms of young adult hermaphrodites were injected with the dsRNA [25]. Following a 12 hour purge period to remove embryos unlikely to have received a full dose of dsRNA, the injected hermaphrodites were used in the colchicine toxicity assay described above.

SMILES | CYP genes whose expression was induced [1] | Toxin sensitivity of nhr-8(ok186) homozygotes compared with wild type animals (percentage surviving to the adult stage) ([3]; in vivo) | Sensitivity of nhr-8(ok186) mutant animals compared with wild-type (N2), L1 assay [2] | further results
O=c1cc(-c2ccccc2)oc2ccc3ccccc3c12 [β-naphthoflavone] | CYP35A3 and CYP35A4 | – | – | Difference in sensitivity of wild-type (N2) and nhr-8(ok186) mutant animals ([2]; preliminary experiments, data not shown): did not reveal any detectable differences
CCN(CC)CCCC(C)Nc1ccnc2cc(Cl)ccc12 (centres unmarked) [chloroquine] | CYP35A1, CYP35B1, CYP35B2, and CYP35B3 | more sensitive | – | Toxin sensitivity of nhr-8(ok186); pgp-3(pk18) double mutant animals compared with animals with only a single disrupted gene ([3]; in vivo): more sensitive
CCNc1nc(Cl)nc(NC(C)C)n1 [atrazine] | – | – | slightly increased sensitivity | –
COc1cc(NC(C)CCCN)c2ncccc2c1 (centres unmarked) [primaquine] | – | – | increased sensitivity | –
COc1cc2c(c(OC)c1OC)-c1ccc(OC)c(=O)cc1[C@@H](NC(C)=O)CC2 [colchicine] | – | more sensitive | – | Colchicine sensitivity after disruption of nhr-8 function by RNA mediated interference [4]: phenocopies the colchicine sensitivity of the nhr-8(ok186) mutants; Toxin sensitivity of nhr-8(ok186); pgp-3(pk18) double mutant animals compared with animals with only a single disrupted gene ([3]; double mutant vs single mutants, FIG. 6): more sensitive; Toxin sensitivity of nhr-8(ok186) animals compared with pgp-3 putative null mutants ([3]; nhr-8(ok186) vs pgp-3(pk18), FIG. 6): as sensitive
